Measurements taken from article PMC11938014, “Development and Application of Small Molecule–Peptide Conjugates as Cathepsin K-Specific Covalent Irreversible Inhibitors in Human Osteoclast and Lung Cancer” (JACS Au, 2025).
Read-outs that look alike come from different tables or passages of the source.

What was measured:
Format in all cases: biochemical
[1] = biological target: T1, Recombinant human cathepsin B (Homo sapiens, UniProt P07858); experiment: Recombinant cathepsin inhibition, gel-based competition with GB123 probe; settings: Table S2; three independent competition gel-based experiments; read-out: CTSB (IC50)
T1 construct: made in house
Procedure: (§1) In-gel fluorescence analysis was used to detect the residual activity of the cathepsins by applying pan-cathepsin probe GB123 to detect the stable enzyme–probe complex. This approach is used for testing inhibition and selectivity.[37],[41]
(§2) Recombinant human cathepsin L (0.5 μM), cathepsin B (0.5 μM), cathepsin K (0.5 μM), and cathepsin S (0.5 μM) were pretreated with different concentrations of inhibitors (GD compounds, odanacatib) for 1 h in reaction buffer (50 mM acetate, 2 mM dithiothreitol (DTT), and 5 mM MgCl2, pH 5.5) at 37 °C. GB123 (1 μM) was added and incubated with samples for 60 min at 37 °C.[37],[41] The reaction was stopped by the addition of sample buffer 4× (40% glycerol, 0.2 M Tris/HCl pH 6.8, 20% β-mercaptoethanol, 12% SDS, and 0.4 mg/mL bromophenol blue). Samples were then boiled, separated on a 12.5% SDS gel, and scanned for fluorescence by a Typhoon scanner FLA 9500 at excitation and emission wavelengths of 635 and 670 nm for GB123.
(§3) graphs were generated in GraphPad Prism software.

[2] = biological target: T2, Recombinant human cathepsin K (Homo sapiens, UniProt P43235); experiment: as above; settings: for concentration at which significant CTSK inhibition starts: Figure S5, recombinant CTSK
T2 construct: made in house
T2 sequence (P43235 115-329): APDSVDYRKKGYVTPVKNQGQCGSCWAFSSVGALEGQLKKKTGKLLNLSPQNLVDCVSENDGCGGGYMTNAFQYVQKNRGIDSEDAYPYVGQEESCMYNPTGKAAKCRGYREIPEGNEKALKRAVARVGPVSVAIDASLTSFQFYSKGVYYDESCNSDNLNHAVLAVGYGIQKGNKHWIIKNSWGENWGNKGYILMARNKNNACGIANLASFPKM
Procedure: as §1, §2, §3

[3] = biological target: T3, Recombinant human cathepsin L (Homo sapiens, UniProt P07711); experiment: as above; settings: Table S2; three independent competition gel-based experiments; read-out: CTSL (IC50)
T3 construct: made in house
Procedure: as §1, §2, §3

[4] = biological target: T4, Recombinant human cathepsin S (Homo sapiens, UniProt P25774); experiment: as above; settings: Figure 2, read-out: IC50 [μM] CTSS
T4 construct: made in house
Procedure: as §1, §2

CTSB = biological target: T5, CTSB (Homo sapiens, UniProt P07858); experiment: Kinetic evaluation of recombinant cathepsin inhibition, fluorogenic substrate Z-FR-AMC
T5 construct: made in house
Procedure: Cathepsin (0.4 nM, CatK) or 5 nM (CatS, CatB, and CatL) were each mixed with inhibitors before adding the fluorogenic substrate. The proteases were then reacted with their substrates, Z-RR-AMC (CatL) or Z-FR-AMC (CatS, CatB, and CatK), for 30 min at 37 °C in the phosphate buffer (100 mM Na2HPO4/NaH2PO4, 50 mM NaCl, 5 mM DTT, 0.1% PEG-6000, at pH 6). Reactions were done in 96-well black flat-bottom microplates (Greiner, Germany); fluorescence (Ex/Em 370 and 460 nm) was measured by a Tecan INFINITE M1000 pro plate reader (Tecan, Switzerland) in the presence of inhibitors or vehicle. For irreversible inhibitors, reaction data were analyzed by using the one-phase association formula in GraphPad Prism 9 software: Y = Y0 + (plateau – Y0) × (1 – exp(−K × X)), where Y0 and Y denote the fluorescence signals at times 0 and t, respectively, K represents the observed reaction rate kobs, and X signifies the […]. The inactivation rates at each inhibitor concentration were determined by subtracting the inactivation observed in the control sample: kobs – kctrl. The maximum inactivation rate (kinact) was derived as the asymptote from the equation Y = kinact × X/(Ki^app + X), where X represents the inhibitor concentration, Y is the observed inactivation rate for each X, and Ki^app is the apparent inhibition constant. Ki values were derived from IC50 or Ki^app using the equations Ki = Ki^app/(1 + […]) and IC50 = E0/2 + Ki^app, where Km represents the Michaelis–Menten constant, S denotes substrate concentration, and E0 indicates cathepsin concentration. The maximum inhibitor dose in the experiment was 50 μM. Measurements were conducted in multiple independent duplicates. Average values are listed.

[5] = Figure 4b IC50 curves, recombinant CTSK 0.5 μM, read-out: IC50 for inhibiting CTSK activity

T3 sequence (P07711 114-333): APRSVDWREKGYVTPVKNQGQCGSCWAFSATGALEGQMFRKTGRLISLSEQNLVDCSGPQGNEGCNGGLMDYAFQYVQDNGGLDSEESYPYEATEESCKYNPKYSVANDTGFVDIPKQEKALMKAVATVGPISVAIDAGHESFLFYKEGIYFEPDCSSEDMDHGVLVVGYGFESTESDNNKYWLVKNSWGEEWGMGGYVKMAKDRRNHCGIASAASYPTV
T4 sequence (P25774 115-331): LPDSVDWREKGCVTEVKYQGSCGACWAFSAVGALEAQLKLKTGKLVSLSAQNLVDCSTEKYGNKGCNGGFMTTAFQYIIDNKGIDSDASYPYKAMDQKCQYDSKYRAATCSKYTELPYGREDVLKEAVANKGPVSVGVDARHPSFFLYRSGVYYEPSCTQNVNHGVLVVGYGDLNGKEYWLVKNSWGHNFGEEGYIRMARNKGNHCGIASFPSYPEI

IC50 [1] [µM] | IC50 ([2]; Table S2, value in nM, read-out: CTSK (IC50)) [nM] | IC50 [3] [µM] | IC50 [2, 5] [nM] | concentration at which significant CTSK inhibition starts [2] [µM] | IC50 [4] [µM] | Ki (CTSB; maximum inhibitor dose 50 μM) [µM] | IC50 ([2]; Table S2, three independent competition gel-based experiments, read-out: CTSK (IC50)) [nM] | type of inhibition, CTSB (CTSB) | Ki (CTSB; irreversible inhibitor) [µM] | kinact (CTSB; read-out: kinact (at 50 μM), CTSB) [s⁻¹] | Structure (SMILES)
> 10 | 350 ± 0.05 | > 10 |  |  |  |  |  |  |  |  | CC(C)(F)C[C@H](N[C@@H](c1ccc(-c2ccc(S(C)(=O)=O)cc2)cc1)C(F)(F)F)C(=O)NC1(C#N)CC1 [ODN, odanacatib, reference compound]
> 10 |  | > 10 | 460 ± 77 | 0.25 | 13 ± 2.8 | > 50 |  |  |  |  | CC(C)C[C@H](N[C@@H](c1ccc(-c2ccc(S(C)(=O)=O)cc2)cc1)C(F)(F)F)C(=O)NCC(=O)COC(=O)[C@@H]1CCCN1C(=O)[C@H](CC(C)C)NC(=O)OCC1c2ccccc2-c2ccccc21 [GD20]
> 10 |  | > 10 | 210 ± 27 | 0.062 | 8.3 ± 2.3 |  | 200 ± 20 | irreversible | > 50 | 0.0072 | CC(C)C[C@H](N[C@@H](c1ccc(-c2ccc(S(C)(=O)=O)cc2)cc1)C(F)(F)F)C(=O)NCC(=O)COC(=O)[C@@H]1CCCN1C(=O)[C@H](CCC(N)=O)NC(=O)OCC1c2ccccc2-c2ccccc21 [GD38]
